Data reported in ChEMBL document CHEMBL5149985, “Discovery of cytotoxic natural products from Red Sea sponges: Structure and synthesis” (Eur J Med Chem, 2021).

Assays:
A549 [1] = assay: cells; settings: Homo sapiens, A549, 72 h
Description: Anticancer activity against human A549 cells assessed as inhibition of cell growth measured after 72 hrs by SRB assay

MDA-MB-231 [2] = assay: cells; settings: Homo sapiens, MDA-MB-231, 72 h
Description: Anticancer activity against human MDA-MB-231 cells assessed as inhibition of cell growth measured after 72 hrs by SRB assay

HT-29 [3] = assay: cells; settings: Homo sapiens, HT-29, 72 h
Description: Anticancer activity against human HT-29 cells assessed as inhibition of cell growth measured after 72 hrs by SRB assay

HepG2 [4] = assay: Anticancer activity against human HepG2 cells assessed as inhibition of cell growth incubated for 48 hrs by crystal violet staining based microplate reader analysis; assay type: functional; settings: HepG2, 48 h
HCT-116 [5] = assay: Anticancer activity against human HCT-116 cells assessed as reduction in cell viability measured after 72 hrs by MTT assay; settings: HCT-116, 72 h
HeLa [6] = assay: Anticancer activity against human HeLa cells assessed as reduction in cell viability measured after 72 hrs by MTT assay
MDA-MB-231 [7] = assay: Anticancer activity against human MDA-MB-231 cells assessed as reduction in cell viability measured after 72 hrs by MTT assay; assay type: functional, cell-based; settings: MDA-MB-231, 72 h
L5178Y [8] = assay: Anticancer activity against mouse L5178Y cells assessed as reduction in cell growth by [3H] Thymidine assay relative to control; assay type: functional, cell-based
L5178Y [9] = assay: Anticancer activity against mouse L5178Y cells assessed as reduction in cell growth at 3 uG by [3H] Thymidine assay relative to control; assay type: functional; settings: dose 3 µg
L5178Y [10] = assay: Anticancer activity against mouse L5178Y cells assessed as reduction in cell growth at 10 uG by [3H] Thymidine assay relative to control; assay type: functional; settings: dose 10 µg
MCF7 [11] = assay: Anticancer activity against human MCF7 cells assessed as inhibition of cell growth incubated for 24 hrs by MTT assay; assay type: functional, cell-based; settings: MCF7, 24 h
HeLa [12] = assay: Anticancer activity against human HeLa cells assessed as inhibition of cell growth incubated for 24 hrs by MTT assay; assay type: functional, cell-based
A549 [13] = assay: Anticancer activity against human A549 cells assessed as inhibition of cell growth incubated for 24 hrs by MTT assay; assay type: functional, cell-based; settings: A549, 24 h
HCT-116 [14] = assay: Anticancer activity against human HCT-116 cells assessed as inhibition of cell growth by MTS assay; assay type: functional, cell-based
HepG2 [15] = assay: Anticancer activity against human HepG2 cells assessed as inhibition of cell growth incubated for 48 hrs by ELISA based SRB assay; assay type: functional; settings: HepG2, 48 h
MCF7 [16] = assay: Anticancer activity against human MCF7 cells assessed as inhibition of cell growth incubated for 48 hrs by ELISA based SRB assay; assay type: functional; settings: MCF7, 48 h
Caco-2 = assay: Anticancer activity against human Caco-2 cells assessed as inhibition of cell growth; assay type: functional, cell-based
HepG2 [17] = assay: Anticancer activity against human HepG2 cells assessed as inhibition of cell growth; assay type: functional, cell-based
HT-29 [18] = assay: Anticancer activity against human HT-29 cells assessed as cell growth inhibition; assay type: functional, cell-based
KB 3-1 = assay: Anticancer activity against human KB 3-1 cells assessed as inhibition in cell growth; assay type: functional, cell-based
HCT-116 [19] = assay: Anticancer activity against human HCT-116 cells assessed as inhibition of cell growth incubated for 72 hrs by MTT assay; assay type: functional, cell-based; settings: HCT-116, 72 h

## CC[C@H](C)[C@@H]1NC(=O)[C@@H](C(O)C(C)C)NC(=O)[C@H](Cc2ccc(O)cc2)NC(=O)[C@H]([C@H](C)O)NC(=O)[C@@H](C)NC(=O)[C@H](CC(C)C)NC(=O)[C@H](Cc2ccc(O)cc2)NC(=O)[C@H](Cc2ccccc2)NC1=O (some centres not stated)
A549 [1]
  IC50: 29 µM
MDA-MB-231 [2]
  IC50: 29 µM
HT-29 [3]
  IC50: 30 µM

## CC(C)[C@]1(O)CC[C@@]2(C)C[C@](O)([C@H]3CC[C@@H]4[C@]3(C)CC[C@H]3OC(C)(C)[C@H](O)C(=O)[C@@H](O)[C@]43C)CC[C@@H]21
HepG2 [4]
  IC50: 23 nM

## O=c1[nH]cc(F)c(=O)[nH]1 [FLUOROURACIL]
HCT-116 [5]
  IC50: 4.6 µM
HeLa [6]
  IC50: 12.3 µM
MDA-MB-231 [7]
  IC50: 13 µM

## CC1(C)CCC[C@]2(C)[C@H]3C[C@@H](O)[C@]4(C)C5=C(COC5=O)[C@@H](O)C[C@H]4[C@]3(C)CC[C@@H]12
L5178Y [8]
  IC50: 7.5 nM
L5178Y [9]
  inhibition (INH): 40.5%
L5178Y [10]
  inhibition (INH): 55.3%

## C#C/C=C\CCCCCCCCC#CCCC(=O)NCCc1ccccc1
MCF7 [11]
  IC50: 19.4 µM
HeLa [12]
  IC50: 4.1 µM
A549 [13]
  IC50: 30 µM

## CO[C@H]1C[C@H](CC[C@H](C)[C@H](O)[C@H](C)[C@H]2OC(=O)/C=C/C(C)=C/C[C@@H](O)C[C@H]3C=CC[C@@H](C[C@H](OC)[C@@H](C)[C@@H](O)C[C@@H](O)[C@H](C)[C@@H]([C@@H](C)[C@@H](O)[C@@H](C)CC[C@H]4C[C@H](OC)C[C@H](C)O4)OC(=O)/C(C)=C/C[C@H](O)C[C@@H]4C=CC[C@@H](C[C@H](OC)[C@@H](C)[C@@H](O)C[C@@H](O)[C@@H]2C)O4)O3)O[C@@H](C)C1
HCT-116 [14]
  IC50: 365 nM

## CCCCCCCCCCCCCCCCCC[C@@H](O)C(=O)N[C@@H](CO)[C@H](O)[C@H](O)CCCCCCCCCCCCCCCC
HepG2 [15]
  IC50: 25.4 µM
MCF7 [16]
  IC50: 28.3 µM

## CC1=CC[C@H]2[C@@H]([C@@H]1CC[C@H]1[C@]3(C)CC[C@H](O)C(C)(C)O[C@H]3CC[C@]1(C)O)C(C)(C)CC[C@]2(C)O [SIPHOLENOL L]
Caco-2
  IC50: 26.6 µM
HepG2 [17]
  IC50: 24 µM
HT-29 [18]
  IC50: 4.48 µM
KB 3-1
  IC50: 5.1 nM

## CC1=CCC2C(CC[C@@]2(C)O)C(C)(C)[C@@H]1CC[C@H]1[C@@](C)(O)CCC2OC(C)(C)C(=O)CC[C@@]21C (some centres not stated)
HepG2 [4]
  IC50: 6.9 nM

## C#C/C=C\CCCCCCCCCCC#CCCC(=O)NCCc1c[nH]c2ccccc12
MCF7 [11]
  IC50: 34.1 µM
HeLa [12]
  IC50: 17.4 µM
A549 [13]
  IC50: 25.9 µM

## CC(C)[C@@H](C)/C=C/[C@@H](C)[C@H]1CC[C@H]2C3=C(CC[C@]12C)[C@@]1(C)CC[C@H](O)CC1=CC3=O
HCT-116 [19]
  IC50: 40 µM

## CO[C@@H]1C[C@H](C)O[C@@H](C(O)C[C@H](C)[C@H](O)[C@H](C)[C@H]2OC(=O)/C=C/C(C)=C/C[C@H](O)C[C@H]3C=CC[C@@H](C[C@H](OC)[C@@H](C)[C@@H](O)C[C@@H](O)[C@H](C)[C@@H]([C@@H](C)[C@@H](O)[C@@H](C)CC[C@H]4C[C@H](OC)C[C@H](C)O4)OC(=O)/C=C/C(C)=C/C[C@H](O)C[C@@H]4C=CC[C@@H](C[C@H](OC)[C@@H](C)[C@@H](O)C[C@@H](O)[C@@H]2C)O4)O3)C1 (some centres not stated)
HCT-116 [14]
  IC50: 5.6 nM

## CC(C)[C@@H](C)/C=C/[C@@H](C)[C@H]1CC[C@@]23O[C@@]24C(=O)C[C@H]2CC(=O)CC[C@]2(C)[C@H]4CC[C@]13C
HCT-116 [19]
  IC50: 45 µM
